{"source": "patent US20260199564A1", "about": "“METHOD OF PREVENTING BLOOD COAGULATION AND DRUG-ELUTING IMPLANT FOR PERCUTANEOUS CORONARY INTERVENTION” (priority 2023, published 2026)", "key": {"CYP1A2": {"molecular_target": "T1, CYP1A2 (Homo sapiens, UniProt P05177)", "T1 construct": "with pooled human liver microsomes; from tissue; host or cells: pooled human liver microsomes", "T1 sequence (P05177 1-516)": "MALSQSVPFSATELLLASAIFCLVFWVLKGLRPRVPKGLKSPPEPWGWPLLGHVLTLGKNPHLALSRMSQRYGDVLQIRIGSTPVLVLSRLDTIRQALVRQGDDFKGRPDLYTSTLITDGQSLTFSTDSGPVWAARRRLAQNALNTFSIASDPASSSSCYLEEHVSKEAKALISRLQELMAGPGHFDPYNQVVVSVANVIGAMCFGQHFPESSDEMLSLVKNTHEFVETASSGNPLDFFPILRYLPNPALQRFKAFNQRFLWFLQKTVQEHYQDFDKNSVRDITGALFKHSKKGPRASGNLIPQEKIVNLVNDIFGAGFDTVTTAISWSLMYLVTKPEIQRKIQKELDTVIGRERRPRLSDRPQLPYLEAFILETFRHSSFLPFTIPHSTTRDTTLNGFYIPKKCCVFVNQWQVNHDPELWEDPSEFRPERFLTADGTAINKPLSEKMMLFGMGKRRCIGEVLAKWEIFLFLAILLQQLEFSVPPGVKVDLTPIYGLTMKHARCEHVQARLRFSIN", "assay": "Cytochrome P450 inhibition in human liver microsomes using LC-MS/MS, CYP1A2", "assay_type": "in vitro ADME", "protocol": "(§1) In IC50 shift experiments, CK (0.2 μL prepared in DMSO) was pre-incubated for 30 min at 37° C., at 8 different concentrations, with pooled human liver microsomes (0.1-1 mg/mL, depending on which enzyme was assessed) in the absence or presence of 1 mM NADPH in 100 μL of potassium phosphate buffer (100 mM, pH 7.4) and MgCl2 (2.5 mM). After the pre-incubation, a substrate mixture containing a probe substrate in 100 μL of potassium phosphate buffer (100 mM, pH 7.4), MgCl2 (2.5 mM), and NADPH (1 mM) was added for measurement of the corresponding P450 activities. Incubations were terminated by addition of 200 μL methanol. Samples were then extracted and centrifuged and the supernatant was subjected to validated LC-MS/MS analysis."}, "CYP2B6": {"molecular_target": "T2, CYP2B6 (Homo sapiens, UniProt P20813)", "T2 construct": "with pooled human liver microsomes; from tissue; host or cells: pooled human liver microsomes", "T2 sequence (P20813 1-491)": "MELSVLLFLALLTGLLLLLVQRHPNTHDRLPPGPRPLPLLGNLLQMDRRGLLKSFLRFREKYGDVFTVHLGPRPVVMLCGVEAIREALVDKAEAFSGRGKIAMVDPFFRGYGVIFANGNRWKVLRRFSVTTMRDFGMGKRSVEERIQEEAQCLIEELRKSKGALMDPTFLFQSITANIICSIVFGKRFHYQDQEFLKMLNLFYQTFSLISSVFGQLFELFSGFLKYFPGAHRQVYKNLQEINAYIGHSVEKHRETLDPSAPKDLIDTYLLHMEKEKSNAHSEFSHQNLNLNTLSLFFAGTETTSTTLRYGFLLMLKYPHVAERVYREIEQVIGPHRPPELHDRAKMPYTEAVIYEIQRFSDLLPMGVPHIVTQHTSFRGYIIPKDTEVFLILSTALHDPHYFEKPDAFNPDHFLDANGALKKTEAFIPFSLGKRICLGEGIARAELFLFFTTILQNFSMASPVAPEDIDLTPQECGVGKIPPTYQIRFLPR", "assay": "Cytochrome P450 inhibition in human liver microsomes using LC-MS/MS, CYP2B6", "assay_type": "in vitro ADME", "protocol": "as §1"}, "CYP2D6": {"molecular_target": "T3, CYP2D6 (Homo sapiens, UniProt P10635)", "T3 construct": "with pooled human liver microsomes; from tissue; host or cells: pooled human liver microsomes", "T3 sequence (P10635 whole entry)": "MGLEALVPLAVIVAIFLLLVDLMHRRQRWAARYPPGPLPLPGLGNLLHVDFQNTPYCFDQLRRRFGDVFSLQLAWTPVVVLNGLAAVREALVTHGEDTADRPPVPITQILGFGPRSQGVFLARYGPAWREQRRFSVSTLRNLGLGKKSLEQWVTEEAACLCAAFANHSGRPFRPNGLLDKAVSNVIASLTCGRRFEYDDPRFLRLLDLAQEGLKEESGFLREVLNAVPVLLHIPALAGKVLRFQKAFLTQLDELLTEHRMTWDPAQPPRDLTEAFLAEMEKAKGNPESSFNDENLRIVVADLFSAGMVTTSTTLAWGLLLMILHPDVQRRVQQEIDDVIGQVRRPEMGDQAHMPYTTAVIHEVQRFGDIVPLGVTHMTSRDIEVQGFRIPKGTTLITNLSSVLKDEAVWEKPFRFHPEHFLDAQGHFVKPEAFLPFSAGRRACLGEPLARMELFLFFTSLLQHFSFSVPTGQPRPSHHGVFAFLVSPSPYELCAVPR", "assay": "Cytochrome P450 inhibition in human liver microsomes using LC-MS/MS, CYP2D6", "assay_type": "in vitro ADME", "protocol": "as §1"}, "CYP3A4": {"molecular_target": "T4, CYP3A4 (Homo sapiens, UniProt P08684)", "T4 construct": "with pooled human liver microsomes; from tissue; host or cells: pooled human liver microsomes", "T4 sequence (P08684 whole entry)": "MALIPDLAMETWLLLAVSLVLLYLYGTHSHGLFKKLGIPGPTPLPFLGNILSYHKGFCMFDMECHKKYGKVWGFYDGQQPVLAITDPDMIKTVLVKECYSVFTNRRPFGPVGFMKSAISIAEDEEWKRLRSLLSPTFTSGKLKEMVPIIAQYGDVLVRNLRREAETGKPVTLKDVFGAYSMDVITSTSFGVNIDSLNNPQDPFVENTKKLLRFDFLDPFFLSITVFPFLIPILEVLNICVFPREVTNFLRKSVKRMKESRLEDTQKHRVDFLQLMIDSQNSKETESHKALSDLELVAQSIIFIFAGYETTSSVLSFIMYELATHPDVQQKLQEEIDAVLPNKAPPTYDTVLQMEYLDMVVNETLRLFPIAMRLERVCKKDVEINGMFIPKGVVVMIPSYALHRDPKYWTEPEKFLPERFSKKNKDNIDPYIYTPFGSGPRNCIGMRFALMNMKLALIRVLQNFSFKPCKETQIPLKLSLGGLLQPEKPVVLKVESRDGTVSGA", "assay": "Cytochrome P450 inhibition in human liver microsomes using LC-MS/MS, CYP3A4", "assay_type": "in vitro ADME", "conditions": "for IC50 shift (fold difference): ratio of IC50 with −NADPH to IC50 with +NADPH in the 30 min pre-incubation; for IC50: pooled human liver microsomes", "protocol": "as §1"}, "IL-6": {"system": "IL-6", "assay": "LPS-induced IL-6 expression in HUVECs", "assay_type": "cell-based, human", "conditions": "1, 3, 10 μM for 1 h prior to LPS (1 μg/ml) stimulation for 24 h", "protocol": "(§2) HUVECs were treated for 1 h with ginsenoside CK (1 μM, 3 μM, and 10 μM) prior to LPS (1 μg/ml) stimulation for 24 h (A) IL-6 (B) TNF-αexpression. Values are means±SEM of 3 independent experiments. Statistical significance assessed by one-way ANOVA followed by Scheffe post-hoc test for multiple comparisons (***P<0.01, *P<0.05 vs LPS).\nTreatment of HUVECs with LPS (1 μg/ml) increased IL-6 and TNF-αexpression. To determine whether LPS-induced IL-6 and TNF-αexpression was affected by ginsenoside CK, HUVECs were treated for 1 h with ginsenoside CK (1 μM, 3 μM, and 10 μM) prior to LPS (1 μg/ml) stimulation for 24 h."}, "ICAM-1": {"system": "ICAM-1", "assay": "LPS-induced ICAM-1 mRNA expression in HUVECs", "assay_type": "cell-based, human", "conditions": "1, 3, 10 μM for 1 h prior to LPS (1 μg/ml) stimulation for 24 h", "protocol": "as §2, with “24 h.” for “24 h”, “(A) ICAM-1” for “(A) IL-6”, “(B) VCAM-1 mRNA expression.” for “(B) TNF-αexpression.”\nTreatment of HUVECs with LPS (1 μg/ml) increased ICAM-1 and VCAM-1 mRNA expression. Twenty-four hours after LPS treatment, maximal expression of ICAM-1 and VCAM-1 was attained. To determine whether LPS-stimulated ICAM-1 and VCAM-1 mRNA expression is affected by ginsenoside CK, HUVECs were treated for 1 h with ginsenoside CK (1 μM, 3 μM, and 10 μM) prior to LPS (1 μg/ml) stimulation for 24 h."}, "[1]": {"assay": "Releasing kinetics of ginsenoside CK from three-layer coated stent (CK DES), FIG. 2", "assay_type": "physicochemical"}, "[2]": {"conditions": "50 μM, 30 min pre-incubation in the presence or absence of NADPH"}}}
{"smiles": "CC(C)=CCC[C@](C)(O[C@@H]1O[C@H](CO)[C@@H](O)[C@H](O)[C@H]1O)[C@H]1CC[C@]2(C)[C@@H]1[C@H](O)C[C@@H]1[C@@]3(C)CC[C@H](O)C(C)(C)[C@@H]3CC[C@]12C", "note": "[CK, Ginsenoside compound K]", "values": [{"measurement": "inhibition at concentration of 50 μM", "setting": "CYP1A2; [2]", "value": "did not inhibit"}, {"measurement": "IC50", "setting": "CYP1A2; pooled human liver microsomes, substrate Phenacetin", "value": "> 50", "unit": "µM"}, {"measurement": "IC50", "setting": "CYP2B6; pooled human liver microsomes, substrate Bupropion", "value": 14.8, "unit": "µM"}, {"measurement": "IC50 shift (fold difference)", "setting": "CYP2B6; ratio of IC50 with −NADPH to IC50 with +NADPH in the 30 min pre-incubation", "value": 1.08, "unit": "fold"}, {"measurement": "inhibition at concentration of 50 μM", "setting": "CYP2D6; [2]", "value": "did not inhibit"}, {"measurement": "IC50", "setting": "CYP2D6; pooled human liver microsomes, substrate Dextromethorphan", "value": "> 50", "unit": "µM"}, {"measurement": "IC50 shift (fold difference)", "setting": "CYP3A4; CYP3A4(M), midazolam as substrate", "value": 0.98, "unit": "fold"}, {"measurement": "IC50 shift (fold difference)", "setting": "CYP3A4; CYP3A4(T), testosterone as substrate", "value": 1.06, "unit": "fold"}, {"measurement": "IC50", "setting": "CYP3A4; substrate Midazolam", "value": 9.76, "unit": "µM"}, {"measurement": "IC50", "setting": "CYP3A4; substrate Testosterone", "value": 13.9, "unit": "µM"}, {"measurement": "LPS-induced IL-6 expression", "setting": "IL-6", "value": "significantly decreased"}, {"measurement": "LPS-stimulated ICAM-1 mRNA expression", "setting": "ICAM-1", "value": "significantly inhibited"}, {"measurement": "amount of residual drug in the stent", "setting": "[1]; after 90 days of drug release", "value": "beyond the detection/quantitation limit"}, {"measurement": "drug released (initial burst)", "setting": "[1]; within one month", "value": "~80", "unit": "%"}]}
